Laboratory results published in the OligoGym collection.
HELM strings list units from the 5' end as sugar, base in round brackets, then linkage (d deoxyribose, r ribose, m 2'-O-methyl, p phosphodiester). Strings are as the collection lists them, not checked against the first reports. ss, as = sense and antisense strand; [fl2r] = 2'-fluoro

Conditions: siRNA
Further: test system not given here.

RNA1{r(A)p.r(G)p.r(A)p.r(G)p.r(U)p.r(U)p.r(G)p.r(G)p.r(G)p.r(A)p.r(U)p.r(U)p.r(A)p.r(G)p.r(G)p.r(G)p.r(C)p.r(U)p.r(U)p.r(T)p.r(T)}|RNA2{r(A)p.r(A)p.r(G)p.r(C)p.r(C)p.r(C)p.m(U)p.r(A)p.r(A)p.r(U)p.r(C)p.r(C)p.r(C)p.r(A)p.r(A)p.r(C)p.r(U)p.r(C)p.r(U)p.r(T)p.r(T)}$$$RNA1{StrandType:ss}|RNA2{StrandType:as}$
target mRNA knockdown: 69%

RNA1{r(A)p.r(G)p.r(A)p.r(U)p.r(G)p.r(U)p.r(U)p.r(C)p.r(U)p.r(C)p.r(G)p.r(U)p.r(A)p.r(A)p.r(G)p.r(G)p.r(A)p.r(C)p.r(G)p.r(T)p.r(T)}|RNA2{r(C)p.r(G)p.r(U)p.r(C)p.r(C)p.r(U)p.m(U)p.r(A)p.r(C)p.r(G)p.r(A)p.r(G)p.r(A)p.r(A)p.r(C)p.r(A)p.r(U)p.r(C)p.r(U)p.r(T)p.r(T)}$$$RNA1{StrandType:ss}|RNA2{StrandType:as}$
target mRNA knockdown: 69%

RNA1{r(A)p.r(G)p.r(C)p.m(C)p.r(A)p.m(C)p.r(A)p.r(U)p.r(U)p.r(U)p.r(C)p.m(U)p.r(A)p.r(G)p.r(G)p.r(A)p.r(G)p.r(A)p.r(U)p.r(T)p.r(T)}|RNA2{r(A)p.r(U)p.r(C)p.r(U)p.r(C)p.r(C)p.m(U)p.r(A)p.m(G)p.r(A)p.r(A)p.r(A)p.r(U)p.r(G)p.m(U)p.r(G)p.r(G)p.r(C)p.r(U)p.r(T)p.r(T)}$$$RNA1{StrandType:ss}|RNA2{StrandType:as}$
target mRNA knockdown: 26%

RNA1{r(A)p.r(G)p.r(C)p.m(C)p.r(A)p.r(C)p.r(A)p.r(U)p.r(U)p.r(U)p.r(C)p.r(U)p.m(A)p.r(G)p.r(G)p.r(A)p.r(G)p.r(A)p.r(U)p.r(T)p.r(T)}|RNA2{r(A)p.r(U)p.r(C)p.r(U)p.r(C)p.r(C)p.r(U)p.r(A)p.r(G)p.r(A)p.r(A)p.r(A)p.m(U)p.r(G)p.r(U)p.r(G)p.r(G)p.r(C)p.r(U)p.r(T)p.r(T)}$$$RNA1{StrandType:ss}|RNA2{StrandType:as}$
target mRNA knockdown: 29%

RNA1{r(A)p.r(G)p.r(C)p.r(C)p.[fl2r](C)p.r(A)p.r(G)p.r(A)p.[fl2r](U)p.r(A)p.r(G)p.r(C)p.r(U)p.r(C)p.r(U)p.r(U)p.[fl2r](C)p.r(A)p.r(G)p.r(T)p.r(T)}|RNA2{r(C)p.[fl2r](U)p.r(G)p.r(A)p.r(A)p.r(G)p.r(A)p.r(G)p.r(C)p.[fl2r](U)p.r(A)p.r(U)p.r(C)p.[fl2r](U)p.r(G)p.r(G)p.r(G)p.r(C)p.r(U)p.r(T)p.r(T)}$$$RNA1{StrandType:ss}|RNA2{StrandType:as}$
target mRNA knockdown: 61%

RNA1{r(A)p.r(G)p.r(C)p.r(C)p.r(C)p.r(A)p.r(G)p.r(A)p.[fl2r](U)p.r(A)p.r(G)p.r(C)p.r(U)p.r(C)p.r(U)p.r(U)p.r(C)p.r(A)p.r(G)p.r(T)p.r(T)}|RNA2{r(C)p.r(U)p.r(G)p.r(A)p.r(A)p.r(G)p.r(A)p.r(G)p.r(C)p.[fl2r](U)p.r(A)p.r(U)p.r(C)p.r(U)p.r(G)p.r(G)p.r(G)p.r(C)p.r(U)p.r(T)p.r(T)}$$$RNA1{StrandType:ss}|RNA2{StrandType:as}$
target mRNA knockdown: 69%

RNA1{r(A)p.r(G)p.r(C)p.r(C)p.r(U)p.r(C)p.[fl2r](C)p.r(A)p.r(A)p.r(A)p.r(C)p.r(U)p.r(C)p.r(C)p.[fl2r](U)p.r(A)p.r(G)p.r(C)p.r(U)p.r(T)p.r(T)}|RNA2{r(A)p.r(G)p.r(C)p.r(U)p.r(A)p.r(G)p.r(G)p.r(A)p.r(G)p.r(U)p.r(U)p.r(U)p.r(G)p.r(G)p.r(A)p.r(G)p.r(G)p.r(C)p.r(U)p.r(T)p.r(T)}$$$RNA1{StrandType:ss}|RNA2{StrandType:as}$
target mRNA knockdown: 32%

RNA1{r(A)p.r(G)p.r(C)p.r(C)p.r(U)p.r(C)p.m(C)p.r(A)p.r(A)p.r(A)p.r(C)p.r(U)p.r(C)p.r(C)p.m(U)p.r(A)p.r(G)p.r(C)p.r(U)p.r(T)p.r(T)}|RNA2{r(A)p.r(G)p.r(C)p.m(U)p.r(A)p.r(G)p.r(G)p.r(A)p.r(G)p.r(U)p.r(U)p.m(U)p.r(G)p.r(G)p.r(A)p.r(G)p.r(G)p.r(C)p.r(U)p.r(T)p.r(T)}$$$RNA1{StrandType:ss}|RNA2{StrandType:as}$
target mRNA knockdown: 65%

RNA1{r(A)p.r(G)p.r(C)p.r(C)p.r(U)p.r(C)p.r(C)p.r(A)p.r(A)p.[fl2r](A)p.r(C)p.r(U)p.r(C)p.r(C)p.r(U)p.r(A)p.r(G)p.[fl2r](C)p.r(U)p.r(T)p.r(T)}|RNA2{r(A)p.r(G)p.r(C)p.[fl2r](U)p.r(A)p.r(G)p.r(G)p.r(A)p.r(G)p.r(U)p.r(U)p.r(U)p.r(G)p.r(G)p.r(A)p.r(G)p.r(G)p.r(C)p.r(U)p.r(T)p.r(T)}$$$RNA1{StrandType:ss}|RNA2{StrandType:as}$
target mRNA knockdown: 69%

RNA1{r(A)p.r(G)p.r(C)p.r(C)p.r(U)p.r(C)p.r(C)p.r(A)p.r(A)p.r(A)p.r(C)p.r(U)p.r(C)p.r(C)p.r(U)p.r(A)p.r(G)p.r(C)p.r(U)p.r(T)p.r(T)}|RNA2{r(A)p.r(G)p.r(C)p.m(U)p.r(A)p.r(G)p.r(G)p.r(A)p.r(G)p.r(U)p.r(U)p.m(U)p.r(G)p.r(G)p.r(A)p.r(G)p.r(G)p.r(C)p.r(U)p.r(T)p.r(T)}$$$RNA1{StrandType:ss}|RNA2{StrandType:as}$
target mRNA knockdown: 70%

RNA1{r(A)p.r(G)p.r(C)p.r(G)p.r(A)p.r(U)p.r(C)p.r(C)p.r(C)p.m(G)p.r(A)p.r(A)p.m(C)p.r(A)p.r(A)p.r(G)p.m(U)p.r(A)p.r(U)p.r(T)p.r(T)}|RNA2{r(A)p.m(U)p.r(A)p.r(C)p.r(U)p.m(U)p.r(G)p.r(U)p.r(U)p.r(C)p.r(G)p.r(G)p.r(G)p.r(A)p.r(U)p.r(C)p.r(G)p.r(C)p.r(U)p.r(T)p.r(T)}$$$RNA1{StrandType:ss}|RNA2{StrandType:as}$
target mRNA knockdown: 84%

RNA1{r(A)p.r(G)p.r(C)p.r(G)p.r(A)p.r(U)p.r(C)p.r(C)p.r(C)p.r(G)p.r(A)p.r(A)p.r(C)p.r(A)p.r(A)p.r(G)p.r(U)p.r(A)p.r(U)p.r(T)p.r(T)}|RNA2{r(A)p.m(U)p.r(A)p.r(C)p.r(U)p.r(U)p.r(G)p.r(U)p.r(U)p.r(C)p.r(G)p.r(G)p.r(G)p.r(A)p.r(U)p.r(C)p.r(G)p.r(C)p.r(U)p.r(T)p.r(T)}$$$RNA1{StrandType:ss}|RNA2{StrandType:as}$
target mRNA knockdown: 85%

RNA1{r(A)p.r(G)p.r(C)p.r(G)p.r(G)p.r(G)p.r(G)p.m(U)p.r(A)p.m(U)p.r(G)p.r(A)p.r(A)p.r(G)p.m(A)p.r(G)p.r(C)p.r(U)p.r(U)p.r(T)p.r(T)}|RNA2{r(A)p.r(A)p.r(G)p.r(C)p.r(U)p.r(C)p.r(U)p.r(U)p.m(C)p.r(A)p.m(U)p.r(A)p.r(C)p.r(C)p.r(C)p.r(C)p.r(G)p.r(C)p.r(U)p.r(T)p.r(T)}$$$RNA1{StrandType:ss}|RNA2{StrandType:as}$
target mRNA knockdown: 85%

RNA1{r(A)p.r(G)p.r(C)p.r(G)p.r(G)p.r(G)p.r(G)p.m(U)p.r(A)p.r(U)p.r(G)p.r(A)p.r(A)p.r(G)p.r(A)p.r(G)p.r(C)p.r(U)p.r(U)p.r(T)p.r(T)}|RNA2{r(A)p.r(A)p.r(G)p.r(C)p.r(U)p.r(C)p.r(U)p.r(U)p.r(C)p.r(A)p.m(U)p.r(A)p.r(C)p.r(C)p.r(C)p.r(C)p.r(G)p.r(C)p.r(U)p.r(T)p.r(T)}$$$RNA1{StrandType:ss}|RNA2{StrandType:as}$
target mRNA knockdown: 82%

RNA1{r(A)p.r(G)p.r(C)p.r(U)p.r(C)p.r(U)p.r(U)p.m(U)p.r(G)p.r(U)p.m(C)p.r(A)p.r(C)p.m(C)p.r(U)p.m(C)p.r(U)p.r(C)p.r(U)p.r(T)p.r(T)}|RNA2{r(A)p.r(G)p.r(A)p.r(G)p.r(A)p.r(G)p.r(G)p.m(U)p.r(G)p.r(A)p.m(C)p.r(A)p.r(A)p.r(A)p.r(G)p.r(A)p.r(G)p.r(C)p.r(U)p.r(T)p.r(T)}$$$RNA1{StrandType:ss}|RNA2{StrandType:as}$
target mRNA knockdown: 34%

RNA1{r(A)p.r(G)p.r(C)p.r(U)p.r(C)p.r(U)p.r(U)p.r(U)p.r(G)p.r(U)p.r(C)p.m(A)p.r(C)p.r(C)p.r(U)p.r(C)p.r(U)p.r(C)p.r(U)p.r(T)p.r(T)}|RNA2{r(A)p.r(G)p.r(A)p.r(G)p.r(A)p.r(G)p.r(G)p.r(U)p.r(G)p.r(A)p.m(C)p.m(A)p.r(A)p.r(A)p.r(G)p.r(A)p.r(G)p.r(C)p.r(U)p.r(T)p.r(T)}$$$RNA1{StrandType:ss}|RNA2{StrandType:as}$
target mRNA knockdown: 37%

RNA1{r(A)p.r(G)p.r(G)p.r(A)p.r(C)p.r(G)p.r(G)p.m(U)p.r(A)p.r(C)p.r(U)p.r(U)p.m(U)p.r(C)p.r(G)p.m(A)p.r(A)p.r(A)p.r(G)p.r(T)p.r(T)}|RNA2{r(C)p.r(U)p.r(U)p.r(U)p.r(C)p.r(G)p.r(A)p.r(A)p.r(A)p.r(G)p.m(U)p.r(A)p.r(C)p.r(C)p.r(G)p.r(U)p.r(C)p.r(C)p.r(U)p.r(T)p.r(T)}$$$RNA1{StrandType:ss}|RNA2{StrandType:as}$
target mRNA knockdown: 44%

RNA1{r(A)p.r(G)p.r(G)p.r(A)p.r(C)p.r(G)p.r(G)p.r(U)p.r(A)p.r(C)p.r(U)p.r(U)p.r(U)p.r(C)p.r(G)p.r(A)p.r(A)p.r(A)p.r(G)p.r(T)p.r(T)}|RNA2{r(C)p.r(U)p.r(U)p.r(U)p.r(C)p.r(G)p.r(A)p.r(A)p.r(A)p.r(G)p.r(U)p.m(A)p.r(C)p.r(C)p.r(G)p.r(U)p.r(C)p.r(C)p.r(U)p.r(T)p.r(T)}$$$RNA1{StrandType:ss}|RNA2{StrandType:as}$
target mRNA knockdown: 46%

RNA1{r(A)p.r(G)p.r(G)p.r(A)p.r(G)p.r(A)p.r(C)p.r(C)p.r(G)p.[fl2r](U)p.r(G)p.r(A)p.[fl2r](C)p.r(A)p.r(U)p.r(U)p.r(U)p.r(C)p.r(G)p.r(T)p.r(T)}|RNA2{r(C)p.r(G)p.r(A)p.r(A)p.r(A)p.[fl2r](U)p.r(G)p.r(U)p.r(C)p.[fl2r](A)p.r(C)p.r(G)p.r(G)p.r(U)p.r(C)p.r(U)p.r(C)p.r(C)p.r(U)p.r(T)p.r(T)}$$$RNA1{StrandType:ss}|RNA2{StrandType:as}$
target mRNA knockdown: 69%

RNA1{r(A)p.r(G)p.r(G)p.r(A)p.r(G)p.r(A)p.r(C)p.r(C)p.r(G)p.[fl2r](U)p.r(G)p.r(A)p.[fl2r](C)p.r(A)p.r(U)p.r(U)p.r(U)p.r(C)p.r(G)p.r(T)p.r(T)}|RNA2{r(C)p.r(G)p.r(A)p.r(A)p.r(A)p.[fl2r](U)p.r(G)p.r(U)p.r(C)p.r(A)p.r(C)p.r(G)p.r(G)p.r(U)p.r(C)p.r(U)p.r(C)p.r(C)p.r(U)p.r(T)p.r(T)}$$$RNA1{StrandType:ss}|RNA2{StrandType:as}$
target mRNA knockdown: 72%
